{"source": "patent US10921327B2", "about": "“Probes for quantitative imaging of thiols in various environments” (Baylor College of Medicine, priority 2014, dated 2021)", "key": {"[1]": {"experiment": "Log D in octanol-PBS (pH 7.4) biphasic system", "format": "physicochemical", "conditions": "octanol-PBS pH 7.4, read-out: Log D (pH = 7.4)", "source_text": "To further understand TQ Green distribution between hydrophobic and hydrophilic environments, Applicants measured the Log D values of TQ Green and TQ Green-GSH using an octanol-PBS (pH 7.4) biphasic system (Table 2). […] In addition, Applicants discovered that the absorbance maximum of TQ Green shifts from 480 nm to 455 nm when changing the solvents from PBS to octanol. Applicants hypothesize that if TQ Green is distributed in lipid membranes, the absorbance maximum and fluorescence intensity will change. […] Consistent with the Log D measurements, this experiment also supports the hypothesis that TQ Green accumulates in lipid membranes. Considering the high quantum yield of TQ Green in hydrophobic solvents, lipid enrichment of TQ Green seemingly complicates intracellular GSH quantification. […] However, the Kd′ values may be different under calibration conditions and inside cells, which may introduce a systemic error."}, "cells": {"tested_on": "cells", "experiment": "Confocal imaging of probe interacting with cells (cell penetration)", "format": "cell-based", "method": "FIG. 10 provides confocal images at 488 nm channel of TQ Green (acid form, FIG. 10A), and TQ Green-AM (ester form, FIG. 10B) interacting with cells.\nAll cell lines used in this study were purchased from American Type Culture Collection (ATCC) and grown in DMEM (Gibco, 11965) media supplemented with 10% FBS and 1% 1003 Pen Strep (Gibco). Cells were cultured under a controlled atmosphere (37° C., 5% CO2). Glass dishes were used for cell culture due to confocal scanning requirements. Cells were treated with TQ Green-AM (20 nM-1 μM with 0.0025-1% DMSO in PBS) for 30 minutes, followed by two washing steps with tryptan blue and PBS prior to imaging. Fluorescent images were acquired with 405 nm laser/430-470 nm filter and 488 nm laser/575-620 nm filter. All the microscope settings were kept consistent in each experiment."}}, "data": [{"smiles": "CCN(CC)c1ccc2cc(/C=C/C(=O)c3ccc(C(=O)O)cc3Br)c(=O)oc2c1", "note": "[TQ Green]", "values": [{"measurement": "logD", "setting": "[1]", "value": 0.7}, {"measurement": "Cell penetration (confocal, 488 nm channel)", "setting": "cells", "value": "trapped in the membrane"}]}]}
